Assays:
[1] = test system: aldose reductase; assay: Lens polyol (dulcitol) accumulation in galactose-fed rats; assay type: in vivo, rat (male albino, Spraque-Dawley); conditions: for Mean Polyol Accumulation, Micromoles Dulcitol/g of Tissue: rat lens 24 h after third dose
Procedure: As discussed hereinabove, sugar cataract formation is a frequent complication of the diabetic patient and their occurrence is apparent even in patients where diabetes appears controlled. […] The accumulation of polyols in the lens tissue results in osmotic and histological changes which are characteristic of sugar cataracts. […] Control rats received a 10% galactose solution at a dose level of 10 ml/kg. daily for three days. The total dose was 1 g/kg daily. Six animals per control group were used. Groups receiving galactose plus test drug contained three rats. The routine starting dose of a test drug was 100 mg/kg. orally for three days with galactose given simultaneously. The test drug was administered at a volume of 5 ml/kg. The test drug solution and the galactose solution were administered together. Twenty-four hours after the third dose the lens of the eyeballs were carefully removed from the sacrificed rats and the polyol content of the lens determined according to West and Rapport, Proc. Soc. Exp. Biol. Med. 70, 141-142 (1949).

[2] = biological target: T1, Aldose reductase isolated from bovine lens (Bos taurus, UniProt P16116); assay: Inhibition of aldose reductase isolated from bovine lens (Lineweaver-Burk); assay type: biochemical; conditions: procedure of Lineweaver and Burk, read-out: Amount which inhibits the maximum velocity of the aldose reductase activity by 50% (IC50)
T1 construct: Aldose reductase was isolated from bovine lens; from tissue; host or cells: bovine lens
Procedure: The ability of 4,5-dihydro-4H-pyrrolo[3,2,1-ij]quinoline-1,2-dione to inhibit aldose reductase activity was determined according to the procedure of Lineweaver, H., and Burk D., The Determination of Enzyme Dissociation Constants, J. Am. Chem. Soc. 658-666 (1934).
Aldose reductase was isolated from bovine lens and the activity of the enzyme determined according to Gabbay, R. H. and Kinoshita, J. H., Methods in Enzymology, Vol. XLI (B) 37:159.

SMILES | Mean Polyol Accumulation, Micromoles Dulcitol/g of Tissue ([1]; Experiment No. 1, 100 mg/kg PO daily for three days with galactose 1 g/kg daily, galactose controls 3.7) | Mean Polyol Accumulation, %± Control ([1]; Experiment No. 1, 100 mg/kg PO daily for three days with galactose, rat lens, vs galactose controls) [%] | Mean Polyol Accumulation, %± Control ([1]; po, 100 mg/kg, 72 h) [%] | IC50 [2] [µM] | Mean Polyol Accumulation, Micromoles Dulcitol/g of Tissue ([1]; Experiment No. 1, 200 mg/kg PO daily for three days with galactose 1 g/kg daily, galactose controls 3.7) | Mean Polyol Accumulation, %± Control ([1]; Experiment No. 1, 200 mg/kg PO daily for three days with galactose, rat lens, vs galactose controls) [%] | Mean Polyol Accumulation, Micromoles Dulcitol/g of Tissue ([1]; Experiment No. 2, 100 mg/kg PO daily for three days with galactose 1 g/kg daily, galactose controls 4.3) | Mean Polyol Accumulation, %± Control ([1]; Experiment No. 2, 100 mg/kg PO daily for three days with galactose, rat lens, vs galactose controls)
O=C1C(=O)N2CCCc3cccc1c32 [AHR-5191, 5,6-dihydro-4H-pyrrolo[3,2,1-ij]quinoline-1,2-dione] | 2.1 Micromoles Dulcitol/g of Tissu | -43.2 | -37.0 | 80 |  |  |  | 
O=C(O)CN1C(=O)c2cccc3cccc(c23)C1=O [Ay-22,284, 1,3-dioxo-1H-benz[de]isoquinoline-2(3H) acetic acid] |  |  |  | 90 | 2.7 Micromoles Dulcitol/g of Tissu | -27 | 5.9 Micromoles Dulcitol/g of Tissu | +37.2%
